Test results published in patent US20190185865A1, “USE OF PROKARYOTIC TRANSCRIPTIONAL ACTIVATORS AS METABOLITE BIOSENSORS IN EUKARYOTIC CELLS” (Danmarks Tekniske Universitet, priority 2016, published 2019).
“And” between values parts separate entries of the source, which are not always exact repeats. Identical values can stand only once.

Key:
[1] = Solubility in growth medium; format: physicochemical; conditions: aqueous buffer, read-out: highest soluble CCM concentration
S. cerevisiae cells = experiment: Transport assay: uptake of CCM by yeast cells (LC-MS); format: cell-based, Saccharomyces cerevisiae; conditions: pH 4.5, 24 h
Procedure: Overnight grown CEN.PK113-5A cells were diluted (OD600=0.1) into SC-HIS-LEU medium with or without 1.4 mM (200 mg/L) CCM. Media samples were taken at both 0 h and 24 h, while samples for measuring cellular lysates (10^8 cells) were harvested at 24 h. For quantification of CCM by LC-MS, cultures were harvested by centrifugation. For extracellular CCM quantification the supernatant was centrifuged twice and filtered (0.2 μm) before analysis. For intracellular CCM quantification harvested pellets were washed twice in ice-cold isotonic saline solution (0.9% NaCl) and centrifuged at 5,000×g before cells were extracted in an aqueous 0.1% formic acid solution and sonicated for 15 min. Following this, samples were centrifuged at 13,000×g and supernatants filtered (0.2 μm) prior to analysis. LC-MS data was collected on EVOQ EliteTriple Quadrupole Mass Spectrometer system coupled with an Advance UHPLC (Bruker). Samples were held at 4° C. during the analysis. A 1 μL sample was injected onto a ACQUITY HSS T3 C18 UHPLC column (Waters), with a 1.8 μm particle size and 2.1×100 mm dimensioning. The column was held at a temperature of 30° C. […] Two transitions were chosen in negative Multiple Reaction Monitoring (MRM) mode for quantification of CCM: m/z 141.70-96.80 (quantification transition) and m/z 141.70-53.1 (confirmation transition). […]

yeast cells = experiment: Growth of yeast cells in liquid medium containing CCM; format: cell-based, Saccharomyces cerevisiae; conditions: pH 4.5
Procedure: FIG. 9 (a) Uptake of cis,cis-muconic acid (CCM) at pH 4.5 by S. cerevisiae cells following 24 h of growth. (b) Representative growth curves of yeast cells in liquid medium containing different concentrations of CCM. OD values were determined at 1-h intervals over 25-h period. For both (a) and (b) data display means±s.d. from three (n=3) biological replicate cultivations.

Q: With O=C(O)/C=C\C=C/C(=O)O [CCM, cis, cis-muconic acid] as the compound, how does the solubility [1] read?
A: 1400 µM and 200 µg/mL

Q: What about the “uptake of CCM by yeast” value (S. cerevisiae cells) of the same compound?
A: directly taken up

Q: And the “growth of yeast in presence of CCM” value (yeast cells)?
A: without any growth defects
